Measurements from patent publication US12082584B2, “BOC-butenolide, an antifouling compound that has potent ability to inhibit the settlement of marine invertebrate larvae” (The Hong Kong University of Science and Technology, priority 2021, dated 2024).

Legend:
Balanus amphitrite = assay: Anti-larval settlement bioassay of barnacle cyprids (settlement and toxic effects); assay type: in vivo; settings: for settlement rate: cyprids
Experimental: Adult A. amphitrite colonies were collected from Tso Wo Hang Pier (22°23′32.1″N 114°17′18.7″E), Hong Kong, from April to June 2018. The adults were kept in a water tank with running seawater at the Coastal Marine Laboratory (the Hong Kong University of Science and Technology) for no more than a week before experimental use. Adults were induced under light sources for 1 h to hatch and the larvae were obtained using the method described previously by Harder et al. (2001), which is hereby incorporated by reference in its entirety. The nauplii larvae newly released from the adults were reared on diatom Chaetoceros gracilis Schütt. The seawater culture medium was replaced with fresh FSW and algae every day, and the nauplii reached the competent stage, known as cyprid, after 4 d of incubation at around 28° C.
The test compounds were dissolved with a small amount of DMSO. The test compounds were used in six concentrations from 100 ppm to 3.125 ppm with 2-fold serial dilution. The same amount of DMSO was used as the negative control for all testing concentrations. Approximately 20±2 individual A. amphitrite cyprids were placed into each well of the 24-well polystyrene culture plate containing 2 mL of FSW and were subjected to different treatments. For all treatments and controls, three replicates were performed. The plates were then incubated at 25° C. in darkness. After 48 h, the number of settled and swimming larvae were counted using Leica MZ6 microscope, and possible toxic effects were also noted.

Hydroides elegans = assay: Anti-larval settlement bioassay of H. elegans larvae (settlement and toxic effects); assay type: in vivo
Experimental: Adult H. elegans colonies were collected from a fish farm at Yung Shue O, Hong Kong (22°24′N, 114°21′E) from March to April 2019. The adults were kept in a water tank with running seawater at the Coastal Marine Laboratory (the Hong Kong University of Science and Technology) for no more than 3 days before experimental use. The larvae were collected according to the methods described by Qian and Pechenik (1998). The tube of the adults was gently cracked with forceps to release the gametes. Oocytes were then mixed with the sperm and transferred to a new container with 500 mL FSW for fertilization. Larvae were reared on microalga Isochrysis galbana (Tahitian strain) after hatching. The seawater culture medium was replaced with fresh FSW and algae every day, and the trochophore-stage larvae reached the competent stage after 5 d of incubation at around 25° C.
The test compounds were dissolved with a small amount of DMSO. The test compounds were used at six different concentrations with a 2-fold serial dilution from 100 ppm to 3.125 ppm. The same amount of DMSO was used as the negative control for all testing concentrations. Approximately 10±2 individuals of H. elegans larvae were put into each well of a 24-well polystyrene culture plate that contained 2 mL of FSW with different concentrations of test solution. Approximately 10^−4 molarity of 3-isobutyl-1-methylxanthine was added into each well as an inducer to induce the settlement of H. elegans larvae (Xu et al., 2010). The plates were then incubated at 25° C. in darkness. After 24 h, the number of settled and swimming larvae were counted using Leica MZ6 microscope, and possible toxic effects were also noted.

[1] = Antifoulant release rate from PCL-PU coatings in artificial seawater (HPLC); assay type: physicochemical
Experimental: (§1) The polymer/antifoulant coatings in subject invention were prepared using the solution casting method described by Ding et al. 2018. The coating was prepared by dissolving poly(ε-caprolactone) based polyurethane (PCL-PU) and BOC-butenolide, in different proportions (i.e. 95 wt % polymer and 5 wt % antifoulant for 5% antifoulant coating), in xylene with vigorous stirring until all solids have dissolved to form a uniform solution. The solution was applied onto the surface of the panels, either epoxy panel (25 mm×75 mm) for release rate determination or PVC panels (53 mm×125 mm) for field test, and the panels were then placed under room temperature for all solvent to evaporate and form a continuous coating.
The release rate of BOC-butenolide was determined by HPLC for quantification. The polymer/antifoulant coatings were prepared on an epoxy panel (25 mm×75 mm). The coated panels were then put into ASW. At certain time points (day 1, 8, 15, 22, 29, 50, 71, 92 after immersion onto ASW), the panels were transferred to individual containers with 100 mL of fresh ASW. […]

fouling organisms = assay: Field test of coated PVC panels immersed in seawater; assay type: in vivo; settings: PCL-PU coating
Experimental: as §1
The field tests were conducted at a fish farm in Yung Shue O, Hong Kong (114°21′E, 22°24′N) from January to March 2018. PVC panels (53 mm×125 mm) covered with coatings were immersed in seawater at a depth of 1 m from surface. The panels were retrieved once every month to be washed gently with seawater to remove dirt and photographed before being placed back in the sea. The antifouling potential of different panels was compared to determine the efficiency of the coatings. […] The percentage of area covered by foulers was calculated from the ratio of total fouling area to the panel area in which the area was highlighted by threshold function in ImageJ. […]

[2] = Stability of BOC-butenolide; assay type: physicochemical; settings: compared to butenolide
Experimental: The stability of BOC-butenolide was measured by the concentration changes of BOC-butenolide in ASW throughout 3 months. The starting nominal concentration of BOC-butenolide was 200 ppm. At every time point, 5 mL of the solution was drawn and mixed with 10 mL dichloromethane (DCM). The DCM fraction with the analyte was dried under nitrogen gas, redissolved reconcentrated in 1 mL of methanol and subjected to above HPLC analysis.

initial release rate ([1]; 10 wt % samples in PCL-PU coating): 150 μg cm^−2 day^−1
time the coating can still release BOC-butenolide ([1]; PCL-PU coating): at least 2 months
stability [2]: increased
SMILES: CC(C)(C)OC(=O)NCCCCCC1C=CC(=O)O1 (stereo not shown) [BOC-butenolide, Tert-butyl (5-(5-oxo-2,5-dihydrofuran-2yl)pentyl)carbamate]
settlement rate (Balanus amphitrite; 3.125 ppm, 48 h): around 70%
toxicity (larval death rate) (Balanus amphitrite; 25 ppm and below): did not show any toxicity
settlement rate (Balanus amphitrite; 25 ppm, 48 h): around 3%
attachment of barnacle cyprids (Balanus amphitrite; 50 to 100 ppm, 48 h): inhibits the attachment
settlement rate (Hydroides elegans; 3.125 ppm, 24 h): up to 80%
toxicity (larval death rate) (Hydroides elegans; 25 ppm and below): did not show any toxicity
settlement rate (Hydroides elegans; 25 ppm, 24 h, significant difference with control): around 20%
larval settlement (Hydroides elegans; 50 and 100 ppm, 24 h): no larval settlement
death (Hydroides elegans; 50 ppm): around 10%
AF ability to resist the attachment of the fouling organisms (fouling organisms): relatively good AF ability
